# Reference: ChEMBL document CHEMBL1201862, “PubChem BioAssay data set” (2004)
# Calls of active or inactive are those of the source.
# Key:
# Troponin, cardiac muscle = Troponin, cardiac muscle (Homo sapiens, UniProt P19429+P45379+P63316); assay: Fluorescence-based biochemical high throughput dose response assay for activators of the calcium sensitivity of cardiac Regulated Thin Filaments (RTF). [Related pubchem assays (depositor defined):AID493008, AID493018, AID504382, AID504383]; format: protein-complex assay
# [1] = target: E3 ubiquitin-protein ligase XIAP (Homo sapiens, UniProt P98170); assay: Counter Screen using XIAP-Bir3 for Chemical Antagonists of Bir1/2 domains of IAP-family anti-apoptotic proteins. [Related pubchem assays (depositor defined):AID1018, AID1449, AID1514, AID1638, AID1749, AID1750, AID488957, AID488963]
# [2] = target: Polyadenylate-binding protein 1 (Homo sapiens, UniProt P11940); assay: PABP poly(A) RNA binding inhibitors, primary screen, biochemical, fluorescence polarization, uHTS (AID 2014)
# [3] = target: Eukaryotic translation initiation factor 4H (Homo sapiens, UniProt Q15056); assay: human eIF4H binding inhibitors, primary screen, translation initiation inhibitor project, biochemical, uHTS, fluorescence polarization (AID 2012)
# Streptokinase A = target: T1, Streptokinase A (Streptococcus pyogenes serotype M1, UniProt P10520); assay: S. pyogenes streptokinase expression inhibitors, potency, dose response, plasminogen activation absorbance, OD405 (AID 1914); format: functional, Streptococcus pyogenes M1 GAS;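 note: secreted streptokinase activity via plasminogen activation per viability signal from cell pellet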
# T1 sequence (P10520 whole entry): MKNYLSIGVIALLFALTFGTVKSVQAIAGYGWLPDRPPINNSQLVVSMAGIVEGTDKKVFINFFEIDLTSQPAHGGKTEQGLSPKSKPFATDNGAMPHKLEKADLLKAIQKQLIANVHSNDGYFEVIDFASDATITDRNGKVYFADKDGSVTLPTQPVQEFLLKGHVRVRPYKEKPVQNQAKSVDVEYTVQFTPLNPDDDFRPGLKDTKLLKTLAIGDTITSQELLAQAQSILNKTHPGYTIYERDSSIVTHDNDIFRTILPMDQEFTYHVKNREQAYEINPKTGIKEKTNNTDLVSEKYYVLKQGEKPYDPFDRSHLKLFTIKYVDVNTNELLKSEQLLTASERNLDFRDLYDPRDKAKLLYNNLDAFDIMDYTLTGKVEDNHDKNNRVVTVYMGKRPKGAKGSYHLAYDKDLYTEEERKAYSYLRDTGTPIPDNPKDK
# Streptococcus = assay: Group A Streptococcus viability loss, dose response, counter-screen for streptokinase expression inhibitor project, luminescence, BacTiterGlo (AID 1915); format: functional, organism-based;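 note: potency for reduction of bacterial viability or growth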
# [4] = test system: Streptococcus sp. 'group A'; assay: growth inhibition of control SK(-) GAS strain, dose response, counter-screen for streptokinase expression inhibitor project, luminescence, kanamycin, BacTiterGlo, confirmation (AID 1900); format: functional, organism-based
# [5] = target: T2, Carboxy-terminal domain RNA polymerase II polypeptide A small phosphatase 1 (Homo sapiens, UniProt Q9GZU7); assay: inhibitors of CTDSP1, concentration-response testing, biochemical assay, absorbance-based, actives from ultra-high-throughput screening (AID 540297); format: functional
# T2 sequence (Q9GZU7 whole entry): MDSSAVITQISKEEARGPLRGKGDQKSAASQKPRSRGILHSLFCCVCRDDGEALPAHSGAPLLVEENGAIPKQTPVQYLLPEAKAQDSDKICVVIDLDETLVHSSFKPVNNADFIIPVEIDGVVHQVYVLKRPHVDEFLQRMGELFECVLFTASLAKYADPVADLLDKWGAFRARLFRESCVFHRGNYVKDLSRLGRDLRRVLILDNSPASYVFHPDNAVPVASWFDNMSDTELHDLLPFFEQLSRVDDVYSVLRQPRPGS
# [6] = target: Voltage-gated inwardly rectifying potassium channel KCNH2 (Homo sapiens, UniProt Q12809); conditions: Potency;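 note: confirmatory quantitative high-throughput screen measuring inhibition of hERG channel activity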
# HEK293 [7] = assay: SAR Analysis of small molecule inhibitors of B-cell specific antigen receptor-induced NF-kB activation in a HEK-293T cell line using a luminescence assay - Set 2. [Related pubchem assays (depositor defined):AID435022, AID435025, AID489021]; format: functional, cell-based; conditions: Homo sapiens
# HEK293 [8] = assay: cytotoxicity in HEK293T NF-kB-Luc cells, SAR follow-up, cytotoxicity control for NF-kB activator project, cell-based, resazurin fluorescence (AID 493251); format: functional; conditions: Homo sapiens
# Jurkat = assay: SAR Analysis of small molecule inhibitors of […] specific antigen receptor-induced NF-kB activation in a Jurkat cell line using a luminescence assay - Set 3. [Related pubchem assays (depositor defined):AID435022, AID435025, AID465]; format: functional, cell-based; conditions: Homo sapiens
# Trypsin = Trypsin (Sus scrofa, UniProt P00761); assay: porcine trypsin inhibitors, dose response, selectivity assay for Rce1 protease inhibitor project, biochemical, quenched peptide fluorescence, cherry-pick (AID 488789)
# [9] = target: T3, Tyrosine-protein phosphatase non-receptor type 22 (Homo sapiens, UniProt Q9Y2R2); format: functional
# T3 sequence (Q9Y2R2 whole entry): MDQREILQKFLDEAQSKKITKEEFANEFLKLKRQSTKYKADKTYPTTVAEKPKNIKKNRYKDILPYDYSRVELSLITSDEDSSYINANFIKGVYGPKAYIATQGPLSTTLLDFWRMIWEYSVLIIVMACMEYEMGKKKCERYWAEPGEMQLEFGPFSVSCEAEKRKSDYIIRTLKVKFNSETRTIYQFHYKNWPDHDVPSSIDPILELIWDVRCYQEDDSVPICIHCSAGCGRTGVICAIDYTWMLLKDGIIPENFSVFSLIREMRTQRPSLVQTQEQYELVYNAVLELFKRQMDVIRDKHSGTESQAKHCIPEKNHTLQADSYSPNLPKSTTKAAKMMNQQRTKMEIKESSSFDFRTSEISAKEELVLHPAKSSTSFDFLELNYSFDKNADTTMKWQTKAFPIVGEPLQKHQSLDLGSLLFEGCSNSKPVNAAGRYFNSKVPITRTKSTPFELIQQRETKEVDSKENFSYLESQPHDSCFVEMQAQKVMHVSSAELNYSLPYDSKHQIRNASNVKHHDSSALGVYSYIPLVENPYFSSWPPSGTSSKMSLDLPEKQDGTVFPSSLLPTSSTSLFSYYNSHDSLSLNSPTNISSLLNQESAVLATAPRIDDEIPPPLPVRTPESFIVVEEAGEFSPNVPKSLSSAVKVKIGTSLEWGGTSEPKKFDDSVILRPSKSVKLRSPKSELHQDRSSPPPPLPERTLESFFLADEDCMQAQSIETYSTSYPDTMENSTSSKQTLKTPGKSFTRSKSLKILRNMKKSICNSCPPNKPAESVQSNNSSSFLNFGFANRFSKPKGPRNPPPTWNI
# [10] = target: T4, Tyrosine-protein phosphatase non-receptor type 7 (Homo sapiens, UniProt P35236); format: functional
# T4 sequence (P35236 whole entry): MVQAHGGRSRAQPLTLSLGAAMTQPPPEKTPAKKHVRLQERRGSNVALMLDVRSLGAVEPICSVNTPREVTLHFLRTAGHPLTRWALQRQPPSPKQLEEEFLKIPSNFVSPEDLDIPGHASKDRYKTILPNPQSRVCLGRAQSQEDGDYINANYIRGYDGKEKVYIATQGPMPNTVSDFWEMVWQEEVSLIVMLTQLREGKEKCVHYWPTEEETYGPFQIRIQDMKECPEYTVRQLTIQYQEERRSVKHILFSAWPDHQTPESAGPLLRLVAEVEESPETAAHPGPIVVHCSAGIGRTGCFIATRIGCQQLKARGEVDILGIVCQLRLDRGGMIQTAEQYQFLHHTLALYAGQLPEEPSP
# [11] = target: T3, Tyrosine-protein phosphatase non-receptor type 22; format: functional; remark: listed apart in the source
# [12] = target: G2/mitotic-specific cyclin-B1 (Homo sapiens, UniProt P14635); assay: G2/M cell cycle arrest in HeLa, late-stage follow-up, mechanism study for Wee1 degradation inhibitor project, FACS, panel member Cyclin B Degradation (AID 2088)
# Sequence of G2/mitotic-specific cyclin-B1 (P14635 whole entry): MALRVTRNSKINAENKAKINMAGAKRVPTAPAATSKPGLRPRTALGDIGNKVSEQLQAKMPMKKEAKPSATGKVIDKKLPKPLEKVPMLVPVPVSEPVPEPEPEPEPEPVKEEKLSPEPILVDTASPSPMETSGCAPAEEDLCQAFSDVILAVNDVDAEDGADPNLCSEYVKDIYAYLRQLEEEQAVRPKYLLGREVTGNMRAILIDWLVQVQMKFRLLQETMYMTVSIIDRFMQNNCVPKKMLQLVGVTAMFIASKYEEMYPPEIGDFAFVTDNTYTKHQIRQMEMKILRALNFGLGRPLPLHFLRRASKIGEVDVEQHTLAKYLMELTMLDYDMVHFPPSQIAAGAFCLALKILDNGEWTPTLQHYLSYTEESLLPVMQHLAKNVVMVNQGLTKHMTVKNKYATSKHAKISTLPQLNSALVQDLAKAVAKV
# Wee1-like protein kinase = Wee1-like protein kinase (Homo sapiens, UniProt P30291); assay: G2/M cell cycle arrest in HeLa, late-stage follow-up, mechanism study for Wee1 degradation inhibitor project, FACS, panel member Wee1 Degradation (AID 2088)
# Sequence of Wee1-like protein kinase (P30291 whole entry): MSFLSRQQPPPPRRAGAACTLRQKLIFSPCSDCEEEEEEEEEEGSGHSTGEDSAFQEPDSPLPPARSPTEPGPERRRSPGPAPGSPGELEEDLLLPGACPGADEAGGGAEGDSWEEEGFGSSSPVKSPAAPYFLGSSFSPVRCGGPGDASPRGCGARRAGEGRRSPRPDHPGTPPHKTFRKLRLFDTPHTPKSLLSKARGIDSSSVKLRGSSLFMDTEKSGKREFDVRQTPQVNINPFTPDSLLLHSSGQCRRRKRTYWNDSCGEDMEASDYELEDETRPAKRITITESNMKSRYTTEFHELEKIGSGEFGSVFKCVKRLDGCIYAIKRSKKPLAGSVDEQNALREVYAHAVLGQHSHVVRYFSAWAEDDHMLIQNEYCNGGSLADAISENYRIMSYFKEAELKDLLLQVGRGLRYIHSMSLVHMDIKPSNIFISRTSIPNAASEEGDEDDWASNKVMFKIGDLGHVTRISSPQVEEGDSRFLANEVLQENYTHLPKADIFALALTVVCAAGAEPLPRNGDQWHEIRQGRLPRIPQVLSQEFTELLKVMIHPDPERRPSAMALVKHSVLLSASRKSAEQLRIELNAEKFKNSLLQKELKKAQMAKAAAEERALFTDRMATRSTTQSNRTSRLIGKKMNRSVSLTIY
# [13] = insulin promoter down-regulators in MIN6 cells, imaging, high-content screening, mouse beta cells (AID 1628); format: functional
# [14] = cytotoxicity in MIN6 insulinoma cells, dose response, cytotoxicity control, cell-based, mouse insulinoma (AID 2122); format: functional;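 note: confirmatory high-throughput counterscreen run to flag cytotoxic compounds; mouse MIN-6 beta cells carrying an insulin promoter eGFP reporter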
# [15] = target: Voltage-dependent T-type calcium channel subunit alpha-1H (Homo sapiens, UniProt O95180); assay: Cav3.2 T-type channel inhibitors, cell-based, synthetic library set 1, calcium flux (AID 493022); format: functional
# Sequence of Voltage-dependent T-type calcium channel subunit alpha-1H (O95180 whole entry): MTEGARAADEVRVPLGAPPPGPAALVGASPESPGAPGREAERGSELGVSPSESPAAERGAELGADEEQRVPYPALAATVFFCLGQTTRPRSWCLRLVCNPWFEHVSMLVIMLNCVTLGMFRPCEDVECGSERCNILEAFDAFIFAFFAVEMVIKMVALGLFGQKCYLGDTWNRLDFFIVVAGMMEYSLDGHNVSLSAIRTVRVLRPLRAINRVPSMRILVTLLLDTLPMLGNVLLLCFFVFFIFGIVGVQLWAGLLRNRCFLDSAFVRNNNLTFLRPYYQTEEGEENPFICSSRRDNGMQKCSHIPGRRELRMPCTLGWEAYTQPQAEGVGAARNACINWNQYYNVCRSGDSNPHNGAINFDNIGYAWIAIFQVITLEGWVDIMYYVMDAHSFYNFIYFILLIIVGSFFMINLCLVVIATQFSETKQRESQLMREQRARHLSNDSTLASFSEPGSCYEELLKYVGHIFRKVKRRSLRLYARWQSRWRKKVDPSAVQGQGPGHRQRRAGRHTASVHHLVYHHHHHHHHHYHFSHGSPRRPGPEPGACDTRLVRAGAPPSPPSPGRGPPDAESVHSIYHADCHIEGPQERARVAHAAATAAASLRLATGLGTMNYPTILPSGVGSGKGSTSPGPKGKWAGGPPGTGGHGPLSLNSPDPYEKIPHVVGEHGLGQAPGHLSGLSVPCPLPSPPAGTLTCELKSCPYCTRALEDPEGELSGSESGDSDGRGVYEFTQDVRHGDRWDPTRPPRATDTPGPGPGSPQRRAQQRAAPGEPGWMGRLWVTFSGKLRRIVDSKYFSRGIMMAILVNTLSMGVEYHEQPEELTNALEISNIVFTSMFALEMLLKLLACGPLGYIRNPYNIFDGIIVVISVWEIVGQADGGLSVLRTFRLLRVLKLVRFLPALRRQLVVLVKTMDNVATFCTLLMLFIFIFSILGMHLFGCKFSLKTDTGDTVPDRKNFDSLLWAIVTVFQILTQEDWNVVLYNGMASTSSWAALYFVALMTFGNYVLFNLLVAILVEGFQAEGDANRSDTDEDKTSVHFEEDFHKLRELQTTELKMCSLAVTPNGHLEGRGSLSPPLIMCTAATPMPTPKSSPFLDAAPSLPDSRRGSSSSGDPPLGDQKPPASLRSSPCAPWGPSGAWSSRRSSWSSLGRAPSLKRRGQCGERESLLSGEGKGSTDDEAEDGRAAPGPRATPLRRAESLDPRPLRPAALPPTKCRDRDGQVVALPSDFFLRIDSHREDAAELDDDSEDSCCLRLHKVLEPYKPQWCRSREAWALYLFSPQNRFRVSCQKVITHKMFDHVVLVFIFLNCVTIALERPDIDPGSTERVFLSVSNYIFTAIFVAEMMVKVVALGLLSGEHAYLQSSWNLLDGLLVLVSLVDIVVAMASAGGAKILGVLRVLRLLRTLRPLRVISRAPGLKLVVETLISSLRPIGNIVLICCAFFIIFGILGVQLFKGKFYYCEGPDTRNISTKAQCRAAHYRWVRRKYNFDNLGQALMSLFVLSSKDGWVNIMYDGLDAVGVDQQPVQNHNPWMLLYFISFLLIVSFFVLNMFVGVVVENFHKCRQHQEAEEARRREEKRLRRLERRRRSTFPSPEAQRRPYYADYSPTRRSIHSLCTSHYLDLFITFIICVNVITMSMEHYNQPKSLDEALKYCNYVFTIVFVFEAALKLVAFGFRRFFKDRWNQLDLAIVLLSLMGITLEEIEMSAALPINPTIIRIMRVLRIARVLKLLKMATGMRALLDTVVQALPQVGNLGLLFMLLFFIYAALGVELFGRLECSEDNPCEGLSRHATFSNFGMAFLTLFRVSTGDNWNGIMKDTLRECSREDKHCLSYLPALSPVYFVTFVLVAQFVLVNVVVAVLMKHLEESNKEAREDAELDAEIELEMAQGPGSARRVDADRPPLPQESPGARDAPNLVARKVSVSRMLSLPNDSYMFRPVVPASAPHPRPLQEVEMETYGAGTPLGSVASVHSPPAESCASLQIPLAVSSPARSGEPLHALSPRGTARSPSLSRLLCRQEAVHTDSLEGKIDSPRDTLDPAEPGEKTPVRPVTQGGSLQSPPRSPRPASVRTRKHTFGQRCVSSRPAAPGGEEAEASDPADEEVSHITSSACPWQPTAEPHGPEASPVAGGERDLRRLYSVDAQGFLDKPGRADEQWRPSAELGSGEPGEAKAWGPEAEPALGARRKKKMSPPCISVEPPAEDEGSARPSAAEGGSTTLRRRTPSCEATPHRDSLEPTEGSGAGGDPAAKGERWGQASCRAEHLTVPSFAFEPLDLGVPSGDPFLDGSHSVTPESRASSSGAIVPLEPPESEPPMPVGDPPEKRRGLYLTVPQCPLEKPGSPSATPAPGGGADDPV
# [16] = target: T4, Tyrosine-protein phosphatase non-receptor type 7; assay: HePTP (PTPN7) phosphatase inhibitor potency, SAR follow-up, biochemical, set 2 (AID 449736); format: functional
# [17] = target: Alkaline phosphatase, placental type (Homo sapiens, UniProt P05187); assay: PLAP enzyme inhibitors, confirmation, biochemical, luminescence (AID 1512); format: functional
# Sequence of Alkaline phosphatase, placental type (P05187 whole entry): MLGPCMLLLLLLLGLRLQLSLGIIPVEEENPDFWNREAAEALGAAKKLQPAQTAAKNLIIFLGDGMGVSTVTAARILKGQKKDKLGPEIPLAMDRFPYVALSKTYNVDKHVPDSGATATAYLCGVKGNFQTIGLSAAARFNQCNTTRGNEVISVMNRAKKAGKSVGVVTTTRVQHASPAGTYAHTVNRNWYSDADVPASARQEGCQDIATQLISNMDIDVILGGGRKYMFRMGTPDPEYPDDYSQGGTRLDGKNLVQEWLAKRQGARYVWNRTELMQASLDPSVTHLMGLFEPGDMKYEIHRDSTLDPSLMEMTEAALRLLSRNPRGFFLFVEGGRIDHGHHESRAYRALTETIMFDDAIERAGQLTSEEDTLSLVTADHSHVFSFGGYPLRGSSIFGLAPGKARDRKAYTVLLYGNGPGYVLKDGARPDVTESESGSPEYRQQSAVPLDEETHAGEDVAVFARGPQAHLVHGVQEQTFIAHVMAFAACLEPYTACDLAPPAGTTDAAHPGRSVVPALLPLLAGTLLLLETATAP
# [18] = target: Glyceraldehyde-3-phosphate dehydrogenase (Homo sapiens, UniProt P04406)
# [19] = target: T5, Mannose-6-phosphate isomerase (Homo sapiens, UniProt P34949); assay: PMI enzyme inhibitors, confirmation, biochemical, fluorescence intensity (AID 1535)
# T5 sequence (P34949 whole entry): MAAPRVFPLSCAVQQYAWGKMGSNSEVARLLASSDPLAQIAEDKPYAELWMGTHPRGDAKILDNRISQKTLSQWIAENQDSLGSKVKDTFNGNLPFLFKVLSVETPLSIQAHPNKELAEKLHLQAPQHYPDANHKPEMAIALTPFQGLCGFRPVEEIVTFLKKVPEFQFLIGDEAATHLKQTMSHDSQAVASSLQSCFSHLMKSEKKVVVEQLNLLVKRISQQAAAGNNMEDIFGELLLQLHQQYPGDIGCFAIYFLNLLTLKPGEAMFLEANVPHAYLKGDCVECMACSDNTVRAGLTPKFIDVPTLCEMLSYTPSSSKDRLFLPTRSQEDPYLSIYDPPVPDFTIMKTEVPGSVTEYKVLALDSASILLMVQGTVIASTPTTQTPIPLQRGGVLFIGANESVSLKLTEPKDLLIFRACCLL
# Phosphomannomutase 2 = Phosphomannomutase 2 (Homo sapiens, UniProt O15305); assay: Counter screen SAR assay for PMM2 inhibitors via a fluorescence intensity assay. [Related pubchem assays (depositor defined):AID1545, AID1574]
# [20] = Fluorescence-based cell-based high throughput dose response assay for inhibitors of the interaction of nucleotide-binding oligomerization domain containing 2 (NOD2) and the receptor-interacting serine-threonine kinase 2 (RIPK2).; format: functional; conditions: Homo sapiens
# [21] = THP-1 cell cytotoxicity, dose response, cytotoxicity control for Vif-APOBEC3G degradation inhibitor project, THP-1 cells (AID 1117359); format: functional; conditions: Human immunodeficiency virus 1, THP-1
# Beta-galactosidase = Beta-galactosidase (Escherichia coli, UniProt Q8VNN2); assay: beta-galactosidase enzyme inhibitors and activators, dose response, artefact control for CCR6 antagonist project, biochemical, E. coli enzyme, set 3 (AID 504712); format: functional
# Sequence of Beta-galactosidase (Q8VNN2 whole entry): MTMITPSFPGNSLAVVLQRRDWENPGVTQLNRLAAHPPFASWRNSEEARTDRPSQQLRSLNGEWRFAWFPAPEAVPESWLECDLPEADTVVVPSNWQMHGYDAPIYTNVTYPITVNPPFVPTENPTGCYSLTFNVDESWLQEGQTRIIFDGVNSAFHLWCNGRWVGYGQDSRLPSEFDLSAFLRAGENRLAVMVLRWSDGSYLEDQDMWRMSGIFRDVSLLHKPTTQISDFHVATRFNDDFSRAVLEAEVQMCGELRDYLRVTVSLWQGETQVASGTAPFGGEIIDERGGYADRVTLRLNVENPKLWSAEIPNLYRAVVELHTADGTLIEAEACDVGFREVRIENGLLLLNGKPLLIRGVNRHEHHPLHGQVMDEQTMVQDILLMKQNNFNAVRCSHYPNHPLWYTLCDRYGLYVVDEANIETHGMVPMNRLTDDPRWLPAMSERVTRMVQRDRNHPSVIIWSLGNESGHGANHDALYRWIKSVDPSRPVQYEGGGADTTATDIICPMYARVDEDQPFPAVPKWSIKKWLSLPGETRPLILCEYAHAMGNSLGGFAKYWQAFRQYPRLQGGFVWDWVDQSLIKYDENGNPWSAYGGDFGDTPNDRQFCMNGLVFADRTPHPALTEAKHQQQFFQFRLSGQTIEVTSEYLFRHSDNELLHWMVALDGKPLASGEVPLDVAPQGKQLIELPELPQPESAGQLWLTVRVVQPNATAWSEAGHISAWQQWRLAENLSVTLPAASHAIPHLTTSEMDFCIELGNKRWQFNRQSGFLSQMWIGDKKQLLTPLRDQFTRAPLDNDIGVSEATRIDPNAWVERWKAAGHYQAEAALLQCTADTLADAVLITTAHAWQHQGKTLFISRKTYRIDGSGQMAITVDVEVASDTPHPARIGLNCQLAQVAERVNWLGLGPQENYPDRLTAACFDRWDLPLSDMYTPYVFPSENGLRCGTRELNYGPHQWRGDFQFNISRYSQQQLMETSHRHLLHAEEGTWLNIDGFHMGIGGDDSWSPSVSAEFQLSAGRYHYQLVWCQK
smiles,measurement,setting,value
O=C(Nc1ccc2c(c1)OCCO2)c1cccc(Cl)c1Cl,EC50,"Troponin, cardiac muscle",> 71.4 µM (inactive)
Cc1ccc(C(=O)COc2ccccc2C(=O)Nc2ccccc2)cc1,IC50,[1],> 20 µM (inactive)
COc1ccc(C(CC(=O)N2CCCC(C)C2)c2c(OC)cc(OC)c3c(-c4ccccc4)cc(=O)oc23)cc1 (stereo unspecified),IC50,[2],28.3 µM (active)
same,IC50,[3],8.23 µM (active)
same,EC50,Streptokinase A,41.2 µM (active)
same,EC50,Streptococcus,> 150 µM (not active)
same,EC50,[4],14.5 µM (active)
same,IC50,[5],7.99 µM (active)
CC(C)COC(=O)c1ccccc1C(=O)OCC(C)C,AC50,[6],35.5 µM (inconclusive)
CCOc1ccc(-c2nc(CSCC(=O)NCc3cccs3)c(C)o2)cc1,IC50,HEK293 [7],24.3 µM (inactive)
same,IC50,HEK293 [8],34.8 µM (inactive)
same,IC50,Jurkat,> 80 µM (inactive)
NS(=O)(=O)c1ccc(NC(=O)/C=C/c2cn(-c3ccccc3)nc2-c2cccc(Cl)c2)cc1,AC50,Trypsin,81.4 µM (active)
O=C(c1cc2cc(F)ccc2[nH]1)N1CCN(C(=O)c2ccco2)CC1,IC50,[9],> 79.4 µM (inactive)
same,IC50,[10],> 79.4 µM (inactive)
same,IC50,[11],> 79.4 µM (inactive)
CCCNC(=O)CCc1nc(-c2ccc(C(C)(C)C)cc2)no1,IC50,HEK293 [7],9.19 µM (active)
same,IC50,HEK293 [8],> 80 µM (inactive)
same,IC50,Jurkat,> 80 µM (inactive)
CCOC(=O)/C(=C\c1c[nH]c2ccccc12)NC(C)=O,EC50,"Troponin, cardiac muscle",> 71.4 µM (inactive)
Cc1cc(O)nc(-n2nc(C)cc2NC(=O)c2ccccc2)n1,EC50,[12],> 49.7 µM (inactive)
same,EC50,Wee1-like protein kinase,> 16.6 µM (active)
Cn1c(N2CCOCC2)c(/C=N/OC(=O)c2cccnc2Cl)c2ccccc21,IC50,[13],3.37 µM (active)
same,IC50,[14],1.4 µM (active)
CSc1cccc(NC(=O)CCCOc2cc(=O)n(C)c3ccccc23)c1,EC50,[12],> 49.7 µM (inactive)
same,EC50,Wee1-like protein kinase,> 49.7 µM (inactive)
Cc1ccc(-c2nnc(NC(=O)COc3ccc(F)cc3)o2)cc1C,EC50,[15],10 µM (active)
NS(=O)(=O)c1ccc(NC(S)=NC2CCCC2)cc1,IC50,[16],28 µM (active)
O=C(COc1ccc(F)cc1Cl)Nc1nnc(-c2ccc3ccccc3c2)o1,EC50,[15],3.6 µM (active)
CC(C)(C)NC(=O)c1cc(-c2ccc(Cl)cc2Cl)n[nH]1,IC50,[17],> 100 µM (inactive)
same,IC50,[18],> 100 µM (not active)
Sc1n[nH]c(-c2ccccc2Cl)n1,IC50,[19],> 50 µM (inactive)
same,IC50,Phosphomannomutase 2,> 100 µM (inactive)
CCOC(=O)c1cc([N+](=O)[O-])cc([N+](=O)[O-])c1Sc1[nH]cnc2ncnc1-2,IC50,[20],3.29 µM (active)
same,CC50,[21],1.6 µM (active)
same,IC50,Beta-galactosidase,> 66.6 µM (inactive)
